Test results taken from patent publication US20240067645A1, “HETEROCYCLIC COMPOUND AS DIACYLGLYCEROL KINASE INHIBITOR AND USE THEREOF” (LG CHEM, LTD., priority 2020, published 2024).

Each compound was assayed against DGKα (Homo sapiens (Human), UniProt P23743) (assay: Measurement of inhibitory effect against DGKα enzyme (ADP-Glo)). Conditions: DGKα enzyme, ADP-Glo luminescence, OAG/ATP substrate, 20 min room temperature; read-out: IC50.
Sequence of DGKα (P23743 whole entry, species assumed): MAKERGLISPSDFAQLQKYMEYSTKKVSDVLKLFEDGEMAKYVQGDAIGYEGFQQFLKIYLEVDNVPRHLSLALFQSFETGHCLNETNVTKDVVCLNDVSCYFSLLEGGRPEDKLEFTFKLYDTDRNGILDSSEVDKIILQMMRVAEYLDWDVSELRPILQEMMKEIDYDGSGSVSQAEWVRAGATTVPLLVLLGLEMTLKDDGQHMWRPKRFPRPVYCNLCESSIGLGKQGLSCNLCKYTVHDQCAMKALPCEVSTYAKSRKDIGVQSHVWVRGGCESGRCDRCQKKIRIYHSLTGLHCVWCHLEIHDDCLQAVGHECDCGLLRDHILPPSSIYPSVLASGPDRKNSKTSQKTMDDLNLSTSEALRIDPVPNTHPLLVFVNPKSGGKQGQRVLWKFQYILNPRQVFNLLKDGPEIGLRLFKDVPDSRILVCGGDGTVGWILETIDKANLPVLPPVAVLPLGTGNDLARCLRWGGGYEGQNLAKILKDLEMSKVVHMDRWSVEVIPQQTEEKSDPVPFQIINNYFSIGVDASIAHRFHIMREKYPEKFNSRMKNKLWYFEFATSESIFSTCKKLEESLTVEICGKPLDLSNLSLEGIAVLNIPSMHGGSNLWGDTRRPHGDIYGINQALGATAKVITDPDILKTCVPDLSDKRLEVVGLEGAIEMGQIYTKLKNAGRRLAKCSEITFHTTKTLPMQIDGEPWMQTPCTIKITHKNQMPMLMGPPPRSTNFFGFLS
Format: biochemical
Experimental: Experimental Example: Measurement of Inhibitory Effect Against DGKα Enzyme
First, 3×OAG (3 mM)/ATP (0.45 mM) substrate solution was prepared from 1× substrate assay buffer (40 mM MOPS (pH 7.2), 20 mM MgCl2, 1 mM DTT, 0.4 mM CaCl2), 3 mM sodium deoxycholate, 100 mM NaCl, 0.1 mg/mL BSA, 0.12% NP-40), and vortexed thoroughly for 3 minutes to induce detergent-lipid micelle formation. Then, 3×DGKα (7.5 nM) enzyme solution was prepared from 2× enzyme assay buffer (80 mM MOPS (pH 7.2), 2 mM DTT, 200 mM NaCl, 0.2 mg/mL BSA) and vortexed for a short time.
After preparing the above two solutions, a half-area opaque 96-well assay plate was prepared, and 10 μL of 3× diluted compound solution (30 μM to 0 μM) was transferred to each well. Next, 10 μL of 3×DGK enzyme solution was transferred to the same plate, mixed by pipetting, and then 10 μL of 3×OAG/ATP substrate solution was added to the assay plate and mixed well. The plate was incubated at room temperature for 20 minutes for the enzyme reaction. Next, 15 μL of ADP-Glo reagent was added to each well and mixed by pipetting, followed by incubating the plate at room temperature for 40 minutes to deplete the remaining ATPs. After this step, 30 μL of kinase detection reagent was added and mixed, and the plate was incubated at room temperature for an additional 20 minutes and luminescence was measured by Envision to calculate the IC50 value of each compound.
The measurement results are represented in Table 1 (+: IC50>5 μM, ++: 5 μM>IC50>300 nM, +++: IC50<300 nM).
For Cn1c(=O)c(=O)n(C2CCN(Cc3ccc(OC(F)(F)F)cc3)CC2)c2ncccc21 [Example 1, methyl-4-(1-(4-(trifluoromethoxy)benzyl)piperidin-4-yl)-1,4-dihydropyrido[2,3-b]pyrazine-2,3-dione], the IC50 was less than 300 nM. With Cc1ccc2c(n1)n(C1CCN(Cc3ccc(OC(F)(F)F)cc3)CC1)c(=O)c(=O)n2C [Example 2, 1,6-dimethyl-4-(1-(4-(trifluoromethoxy)benzyl)piperidin-4-yl)-1,4-dihydropyrido[2,3-b]pyrazine-2,3-dione] the IC50 was less than 300 nM. CCn1c(=O)c(=O)n(C2CCN(Cc3ccc(OC(F)(F)F)cc3)CC2)c2ncccc21 [Example 3, ethyl-4-(1-(4-(trifluoromethoxy)benzyl)piperidin-4-yl)-1,4-dihydropyrido[2,3-b]pyrazine-2,3-dione] was tested, and the IC50 was 300 to 5000 nM. Compound CC(C)Cn1c(=O)c(=O)n(C2CCN(Cc3ccc(OC(F)(F)F)cc3)CC2)c2ncccc21 [Example 4, isobutyl-4-(1-(4-(trifluoromethoxy)benzyl)piperidin-4-yl)-1,4-dihydropyrido[2,3-b]pyrazine-2,3-dione] has an IC50 greater than 5000 nM. For Cc1ccc2c(n1)n(C1CCN(Cc3cccc4ccccc34)CC1)c(=O)c(=O)n2C [Example 5, 1,6-dimethyl-4-(1-(naphthalen-1-ylmethyl)piperidin-4-yl)-1,4-dihydropyrido[2,3-b]pyrazine-2,3-dione], the IC50 was less than 300 nM. Cc1ccc2c(n1)n(C1CCN(Cc3cc4ccccc4nc3Cl)CC1)c(=O)c(=O)n2C [Example 6, 4-(1-((2-chloroquinolin-3-yl)methyl)piperidin-4-yl)-1,6-dimethyl-1,4-dihydropyrido[2,3-b]pyrazine-2,3-dione] gave an IC50 of 300 to 5000 nM. Work on Cc1ccc2c(n1)n(C1CCN(Cc3c(C)n(C)c4ccccc34)CC1)c(=O)c(=O)n2C [Example 7, 4-(1-((1,2-dimethyl-1H-indol-3-yl)methyl)piperidin-4-yl)-1,6-dimethyl-1,4-dihydropyrido[2,3-b]pyrazine-2,3-dione] yielded an IC50 greater than 5000 nM. Cc1ccc2c(n1)n(C1CCN(Cc3ccc4c(ccn4C)c3)CC1)c(=O)c(=O)n2C [Example 8, 1,6-dimethyl-4-(1-((1-methyl-1H-indol-5-yl)methyl)piperidin-4-yl)-1,4-dihydropyrido[2,3-b]pyrazine-2,3-dione] showed an IC50 of 300 to 5000 nM. In the case of Cc1ccc2c(n1)n(C1CCN(Cc3ccnc4ccccc34)CC1)c(=O)c(=O)n2C [Example 9, 1,6-dimethyl-4-(1-(quinolin-4-ylmethyl)piperidin-4-yl)-1,4-dihydropyrido[2,3-b]pyrazine-2,3-dione], the IC50 is reported as 300 to 5000 nM. Cc1ccc2c(n1)n(C1CCN(Cc3ccccc3-c3ccccc3)CC1)c(=O)c(=O)n2C [Example 10, 4-(1-([1,1′-biphenyl]-2-ylmethyl)piperidin-4-yl)-1,6-dimethyl-1,4-dihydropyrido[2,3-b]pyrazine-2,3-dione] was tested, and the IC50 was 300 to 5000 nM. With Cn1c(=O)c(=O)n(C2CCN(Cc3ccc(OC(F)(F)F)cc3)CC2)c2nc(C#N)ccc21 [Example 11, 1-methyl-2,3-dioxo-4-(1-(4-(trifluoromethoxy)benzyl)piperidin-4-yl)-1,2,3,4-tetrahydropyrido[2,3-b]pyrazine-6-carbonitrile] the IC50 was 300 to 5000 nM. Cc1ccc2c(n1)n(C1CCN(Cc3ccccc3Cl)CC1)c(=O)c(=O)n2C [Example 12, 4-(1-(2-chlorobenzyl)piperidin-4-yl)-1,6-dimethyl-1,4-dihydropyrido[2,3-b]pyrazine-2,3-dione] was tested, and the IC50 was 300 to 5000 nM. Cc1ccc2c(n1)n(C1CCN(Cc3cccc(Cl)c3)CC1)c(=O)c(=O)n2C [Example 13, 4-(1-(3-chlorobenzyl)piperidin-4-yl)-1,6-dimethyl-1,4-dihydropyrido[2,3-b]pyrazine-2,3-dione] gave an IC50 of less than 300 nM. With Cc1ccc2c(n1)n(C1CCN(Cc3ccc(Cl)cc3)CC1)c(=O)c(=O)n2C [Example 14, 4-(1-(4-chlorobenzyl)piperidin-4-yl)-1,6-dimethyl-1,4-dihydropyrido[2,3-b]pyrazine-2,3-dione] the IC50 was 300 to 5000 nM. Compound COc1ncccc1CN1CCC(n2c(=O)c(=O)n(C)c3ccc(C)nc32)CC1 [Example 15, 4-(1-((2-methoxypyridin-3-yl)methyl)piperidin-4-yl)-1,6-dimethyl-1,4-dihydropyrido[2,3-b]pyrazine-2,3-dione] has an IC50 greater than 5000 nM. Cc1ccc2c(n1)n(C1CCN(Cc3cccc(F)n3)CC1)c(=O)c(=O)n2C [Example 16, 4-(1-((6-fluoropyridin-2-yl)methyl)piperidin-4-yl)-1,6-dimethyl-1,4-dihydropyrido[2,3-b]pyrazine-2,3-dione] was tested, and the IC50 was greater than 5000 nM. With Cc1ccc2c(n1)n(C1CCN(Cc3ccc(F)nc3)CC1)c(=O)c(=O)n2C [Example 17, 4-(1-((6-fluoropyridin-3-yl)methyl)piperidin-4-yl)-1,6-dimethyl-1,4-dihydropyrido[2,3-b]pyrazine-2,3-dione] the IC50 was 300 to 5000 nM. Cc1ccc2c(n1)n(C1CCN(Cc3ccc(Oc4ccccc4)cc3)CC1)c(=O)c(=O)n2C [Example 18, 1,6-dimethyl-4-(1-(4-phenoxybenzyl)piperidin-4-yl)-1,4-dihydropyrido[2,3-b]pyrazine-2,3-dione] showed an IC50 of less than 300 nM. With Cc1ccc2c(n1)n(C1CCN(Cc3ccc4ccccc4c3)CC1)c(=O)c(=O)n2C [Example 19, 1,6-dimethyl-4-(1-(naphthalen-2-ylmethyl)piperidin-4-yl)-1,4-dihydropyrido[2,3-b]pyrazine-2,3-dione] the IC50 was 300 to 5000 nM. Compound Cc1ccc2c(n1)n(C1CCN(Cc3cccc4cnccc34)CC1)c(=O)c(=O)n2C [Example 20, 4-(1-(isoquinolin-5-ylmethyl)piperidin-4-yl)-1,6-dimethyl-1,4-dihydropyrido[2,3-b]pyrazine-2,3-dione] has an IC50 of 300 to 5000 nM. Cc1ccc2c(n1)n(C1CCN(Cc3cccc(Oc4ccccc4)c3)CC1)c(=O)c(=O)n2C [Example 21, 1,6-dimethyl-4-(1-(3-phenoxybenzyl)piperidin-4-yl)-1,4-dihydropyrido[2,3-b]pyrazine-2,3-dione] gave an IC50 of 300 to 5000 nM. With Cn1c(=O)c(=O)n(C2CCN(Cc3cccc(Cl)c3)CC2)c2ncccc21 [Example 22, 4-(1-(3-chlorobenzyl)piperidin-4-yl)-1-methyl-1,4-dihydropyrido[2,3-b]pyrazine-2,3-dione] the IC50 was less than 300 nM. Work on Cc1ccc2c(n1)n(C1CCN(Cc3ccccc3)CC1)c(=O)c(=O)n2C [Example 23, 4-(1-benzylpiperidin-4-yl)-1,6-dimethyl-1,4-dihydropyrido[2,3-b]pyrazine-2,3-dione] yielded an IC50 of 300 to 5000 nM. Compound Cc1ccc2c(n1)n(C1CCN(C(C)c3ccc4nccnc4c3)CC1)c(=O)c(=O)n2C (stereo not shown) [Example 24, 1,6-dimethyl-4-(1-(1-(quinoxalin-6-yl)ethyl)piperidin-4-yl)-1,4-dihydropyrido[2,3-b]pyrazine-2,3-dione] has an IC50 greater than 5000 nM. Work on Cn1c(=O)c(=O)n(C2CCN(Cc3cccc(Cl)c3)CC2)c2nc(C#N)ccc21 [Example 25, 4-(1-(3-chlorobenzyl)piperidin-4-yl)-1-methyl-2,3-dioxo-1,2,3,4-tetrahydropyrido[2,3-b]pyrazine-6-carbonitrile] yielded an IC50 of 300 to 5000 nM. For Cn1c(=O)c(=O)n(C2CCN(Cc3cccc4ccccc34)CC2)c2nc(C#N)ccc21 [Example 26, 1-methyl-4-(1-(naphthalen-1-ylmethyl)piperidin-4-yl)-2,3-dioxo-1,2,3,4-tetrahydropyrido[2,3-b]pyrazine-6-carbonitrile], the IC50 was 300 to 5000 nM. Cn1c(=O)c(=O)n(C2CCN(Cc3ccc(OC(F)(F)F)cc3)CC2)c2ncc(Cl)cc21 [Example 28, 7-chloro-1-methyl-4-(1-(4-(trifluoromethoxy)benzyl)piperidin-4-yl)-1,4-dihydropyrido[2,3-b]pyrazine-2,3-dione] showed an IC50 of less than 300 nM. For Cn1c(=O)c(=O)n(C2CCN(Cc3cccc4ccccc34)CC2)c2ncc(Cl)cc21 [Example 29, 7-chloro-1-methyl-4-(1-(naphthalen-1-ylmethyl)piperidin-4-yl)-1,4-dihydropyrido[2,3-b]pyrazine-2,3-dione], the IC50 was less than 300 nM. With Cn1c(=O)c(=O)n(C2CCN(Cc3cccc(C(F)(F)F)c3)CC2)c2ncc(Cl)cc21 [Example 30, 7-chloro-1-methyl-4-(1-(3-(trifluoromethyl)benzyl)piperidin-4-yl)-1,4-dihydropyrido[2,3-b]pyrazine-2,3-dione] the IC50 was less than 300 nM. With Cn1c(=O)c(=O)n(C2CCN(Cc3ccc(OC(F)(F)F)cc3)CC2(C)C)c2ncc(Cl)cc21 (stereo not shown) [Example 31, 7-chloro-4-(3,3-dimethyl-1-(4-(trifluoromethoxy)benzyl)piperidin-4-yl)-1-methyl-1,4-dihydropyrido[2,3-b]pyrazine-2,3-dione] the IC50 was 300 to 5000 nM. Cn1c(=O)c(=O)n([C@H]2C[C@H]3CC[C@@H](C2)N3Cc2ccc(OC(F)(F)F)cc2)c2ncc(Cl)cc21 [Example 32, 7-chloro-1-methyl-4-((1R,3s,5S)-8-(4-(trifluoromethoxy)benzyl)-8-azabicyclo[3.2.1]octan-3-yl)-1,4-dihydropyrido[2,3-b]pyrazine-2,3-dione] gave an IC50 of less than 300 nM.
